Measurements published in ChEMBL document CHEMBL3217486, “Novel indolizine compounds as potent inhibitors of phosphodiesterase IV (PDE4): structureactivity relationship” (Medchemcomm, 2011).

target: Phosphodiesterase 4 (Homo sapiens, UniProt P27815+Q08499+Q07343+Q08493); assay: Inhibition of PDE4 isolated from human U937 cells using [3H]-cAMP as substrate after 30 mins by liquid scintillation counting analysis; type: cell-free; details: u-937

Compound	IC50 [nM]
N#Cc1ccc(Cc2cc(C(=O)C(=O)Nc3c(Cl)ccnc3Cl)c3ccccn23)cc1	250
O=C(Nc1c(Br)ccnc1Br)C(=O)c1cc(Cc2ccc(F)cc2)n2ccccc12	10000
COc1ccnc(OC)c1NC(=O)C(=O)c1cc(Cc2ccc(C#N)cc2)n2ccccc12	10000
O=C(Nc1c(Cl)cncc1Cl)C(=O)c1cc(Cc2ccc(Cl)cc2)n2ccc(Cl)cc12	26
O=C(Nc1c(Cl)cncc1Cl)C(=O)c1cc(Cc2ccc(F)cc2)n2ccc(Cl)cc12	28
O=C(Nc1c(Cl)cncc1Cl)C(=O)c1cc(Cc2ccc(F)cc2)n2ccc(F)cc12	13
O=C(Nc1c(Cl)cncc1Cl)C(=O)c1cc(Cc2ccc(O)cc2)n2ccc(Cl)cc12	2
COc1ccc(Cc2cc(C(=O)C(=O)Nc3c(Cl)cncc3Cl)c3cc(Cl)ccn23)cc1	12
N#Cc1ccc(Cc2cc(C(=O)C(=O)Nc3c(Cl)cncc3Cl)c3cc(Cl)ccn23)cc1	82
O=C(Nc1c(Cl)c[n+]([O-])cc1Cl)C(=O)c1cc(Cc2ccc(F)cc2)n2ccc(Cl)cc12	54
O=C(Nc1c(Cl)c[n+]([O-])cc1Cl)C(=O)c1cc(Cc2ccc(F)cc2)n2ccc(F)cc12	18
COc1ccc(Cc2cc(C(=O)C(=O)Nc3c(Cl)c[n+]([O-])cc3Cl)c3ccccn23)cc1	80
O=C(Nc1c(Cl)c[n+]([O-])cc1Cl)C(=O)c1cc(Cc2ccc(O)cc2)n2ccccc12	29
O=C(Nc1c(Cl)cc(C(F)(F)F)cc1Cl)C(=O)c1cc(Cc2ccc(F)cc2)n2ccccc12	10000
O=C(Nc1c(Cl)cncc1Cl)C(=O)c1cc(Cc2ccc(F)cc2)c2ccccn12	6
O=C(Nc1c(Cl)c[n+]([O-])cc1Cl)C(=O)c1cc(Cc2ccc(F)cc2)c2ccccn12	29
O=C(Nc1c(Cl)cncc1Cl)C(=O)c1cn(Cc2ccc(F)cc2)c2ccc(O)cc12 [AWD-12-281]	14

Other lines, results leading:

IC50 [nM]	Compound
348	O=C(Nc1cccnc1)C(=O)c1cc(Cc2ccccc2)n2ccccc12
341	O=C(Nc1cccnc1)C(=O)c1cc(Cc2ccc(F)cc2)n2ccccc12
165	O=C(Nc1cccnc1)C(=O)c1cc(Cc2ccc(Cl)cc2)n2ccccc12
447	COc1ccc(Cc2cc(C(=O)C(=O)Nc3cccnc3)c3ccccn23)cc1
327	O=C(Nc1cccnc1)C(=O)c1cc(Cc2ccc(O)cc2)n2ccccc12
569	O=C(Nc1cccnc1)C(=O)c1cc(Cc2ccc([N+](=O)[O-])cc2)n2ccccc12
824	Nc1ccc(Cc2cc(C(=O)C(=O)Nc3cccnc3)c3ccccn23)cc1
719	N#Cc1ccc(Cc2cc(C(=O)C(=O)Nc3cccnc3)c3ccccn23)cc1
372	O=C(Nc1cccnc1)C(=O)c1cc(Cc2ccc(C(F)(F)F)cc2)n2ccccc12
362	CC(C)c1ccc(Cc2cc(C(=O)C(=O)Nc3cccnc3)c3ccccn23)cc1
414	O=C(Nc1cccnc1)C(=O)c1cc(Cc2ccc(F)cc2)n2ccc(O)cc12
239	O=C(Nc1cccnc1)C(=O)c1cc(Cc2ccc(F)cc2)n2ccc(Cl)cc12
1000	COc1ccn2c(Cc3ccc(Cl)cc3)cc(C(=O)C(=O)Nc3cccnc3)c2c1
4700	N#Cc1ccc(Cc2cc(C(=O)C(=O)Nc3cccnc3Cl)c3ccccn23)cc1
84	O=C(Nc1c(Cl)ccnc1Cl)C(=O)c1cc(Cc2ccc(Cl)cc2)n2ccccc12
1500	COc1ccc(NC(=O)C(=O)c2cc(Cc3ccc(C#N)cc3)n3ccccc23)cn1
116	N#Cc1ccc(Cc2cc(C(=O)C(=O)Nc3c(Cl)cncc3Cl)c3ccccn23)cc1
16	O=C(Nc1c(Cl)cncc1Cl)C(=O)c1cc(Cc2ccc(Cl)cc2)n2ccccc12
40	COc1ccc(Cc2cc(C(=O)C(=O)Nc3c(Cl)cncc3Cl)c3ccccn23)cc1
15	O=C(Nc1c(Cl)cncc1Cl)C(=O)c1cc(Cc2ccc(O)cc2)n2ccccc12
19	O=C(Nc1c(Cl)c[n+]([O-])cc1Cl)C(=O)c1cc(Cc2ccc(Cl)cc2)n2ccccc12
10000	O=C(Nc1c(Cl)cccc1Cl)C(=O)c1cc(Cc2ccc(F)cc2)n2ccccc12
